{"source": "patent US20260256792A1", "about": "“TREATMENT OF CHRONIC SPONTANEOUS URTICARIA BY ADMINISTERING (R)-2-[3-[4-AMINO-3-(2-FLUORO-4-PHENOXY-PHENYL)PYRAZOLO[3,4-D]PYRIMIDIN-1-YL]PIPERIDINE-1-CARBONYL]-4-METHYL-4-[4-(OXETAN-3-YL)PIPERAZIN-1-YL]PENT-2-ENENITRILE” (priority 2023, published 2026)", "tested_on": "moderate-to-severe chronic spontaneous urticaria (CSU)", "test": "Phase 2 CSU study: urticaria activity score over 7 days (UAS7)", "assay_type": "in vivo, human", "parameters": "key to UAS7 Median / UAS7 Change from baseline Median / UAS7 change from baseline, Q1 / UAS7 change from baseline, Q3 / UAS7 change from baseline, Max / UAS7 Change from baseline LS Mean (SE): UAS7 points; daily UAS score ranges 0–6 points/day, over 7 days", "excerpt": "The study comprises a 12 week, randomized, double-blind, placebo-controlled, multi-center, dose-ranging efficacy and safety phase, followed by a 40 week open label extension (OLE) phase (see FIG. 1). The study consists of three phases and an optional OLE phase. […] Clinically, CSU is characterized by the spontaneous and recurrent appearance of pruritic hives. The proposed primary endpoints were the UAS7 at Week 12 in EU and EU reference countries and the ISS7 in the US. Regardless of where a participant was from, all assessments were the same. The UAS7 score is a composite score containing both the HSS7 and the ISS7. This allowed a global assessment of the two key components of urticaria: hives and itch. […] The UAS is a validated PRO measure. […] The daily UAS scores range from 0 to 6 point/day. […] Patients were to complete the UAS using the e-diary. […] The following secondary endpoints were to be analyzed using the same approach as for the primary endpoint: • Change from baseline in UAS7 at Week 4 • Change from baseline in UAS7 at Week 12 (for US and US reference countries) • Change from baseline in ISS7 at Week 12 (except US and US reference countries) • Change from baseline in HSS7 at Week 12 The following responder secondary endpoints were to be analyzed using the Cochran-Mantel-Haenszel test adjusted by region: • Proportion of participants with UAS7<6 at Week 12 • Proportion of participants with UAS7=0 at Week 12 Participants who received selected prohibited medications and/or rescue medications were to be considered as non-responders for time points after the medication usage. For other participants, all available data including those collected during the off-treatment period were to be used to determine the responder/non-responder status. Missing data were to be considered as non-responders.", "key": {"[1]": {"details": "Week 6, 400 mg BID, ITT population"}, "[2]": {"details": "Week 6, 400 mg BID, Omalizumab-Naïve"}, "[3]": {"details": "Week 6, 400 mg BID, Prior Omalizumab Use"}, "[4]": {"details": "Week 6, 400 mg BID, omalizumab-naive participants"}, "[5]": {"details": "Week 6, 400 mg QPM, ITT population"}, "[6]": {"details": "Week 6, 400 mg QPM, Omalizumab-Naïve"}, "[7]": {"details": "Week 6, 400 mg QPM, Prior Omalizumab Use"}, "[8]": {"details": "Week 6, 400 mg QPM, omalizumab-naive participants"}, "[9]": {"details": "Week 6, 400 mg TID, ITT population"}, "[10]": {"details": "Week 6, 400 mg TID, Omalizumab-Naïve"}, "[11]": {"details": "Week 6, 400 mg TID, Prior Omalizumab Use"}, "[12]": {"details": "Week 6, 400 mg TID, omalizumab-naive participants"}, "[13]": {"details": "Week 7, 400 mg BID, ITT population"}, "[14]": {"details": "Week 7, 400 mg BID, Omalizumab-Naïve"}}}
{"smiles": "CC(C)(C=C(C#N)C(=O)N1CCC[C@@H](n2nc(-c3ccc(Oc4ccccc4)cc3F)c3c(N)ncnc32)C1)N1CCN(C2COC2)CC1", "note": "[rilzabrutinib, (R)-2-[3-[4-amino-3-(2-fluoro-4-phenoxy-phenyl)pyrazolo[3,4-d]pyrimidin-1-yl]piperidine-1-carbonyl]-4-methyl-4-[4-(oxetan-3-yl)piperazin-1-yl]pent-2-enenitrile]", "values": [{"measurement": "OR for rilzabrutinib vs. placebo, UAS7 reduction of 10 points or more", "setting": "[1]", "result": 1.222}, {"measurement": "RRD (%) for rilzabrutinib vs. placebo, UAS7 reduction of 10 points or more", "setting": "[1]", "result": 4.9, "unit": "%"}, {"measurement": "Responder, UAS7 reduction from baseline of 10 points or more", "setting": "[1]", "result": "21 (51.2) n (%)"}, {"measurement": "UAS7 Change from baseline Mean (SD)", "setting": "[2]", "result": "−12.76 (11.42)"}, {"measurement": "UAS7 Mean (SD)", "setting": "[2]", "result": "17.02 (12.76)"}, {"measurement": "UAS7 Median", "setting": "[2]", "result": 16.50}, {"measurement": "UAS7 Percent change from baseline Mean (SD)", "setting": "[2]", "result": "−43.89 (39.18) %"}, {"measurement": "UAS7 Percent change from baseline Median", "setting": "[2]", "result": "−38.06", "unit": "%"}, {"measurement": "UAS7 Change from baseline Mean (SD)", "setting": "[3]", "result": "−18.97 (18.81)"}, {"measurement": "UAS7 Change from baseline Median", "setting": "[3]", "result": "−26.00"}, {"measurement": "UAS7 Mean (SD)", "setting": "[3]", "result": "13.03 (15.45)"}, {"measurement": "UAS7 Median", "setting": "[3]", "result": 5.83}, {"measurement": "UAS7 Percent change from baseline Mean (SD)", "setting": "[3]", "result": "−54.26 (54.98) %"}, {"measurement": "UAS7 Percent change from baseline Median", "setting": "[3]", "result": "−86.11", "unit": "%"}, {"measurement": "Non-responder, UAS7 reduction from baseline of 10 points or more", "setting": "[4]", "result": "17 (48.6) n (%)"}, {"measurement": "OR for rilzabrutinib vs. placebo, UAS7 reduction of 10 points or more", "setting": "[4]", "result": 1.486}, {"measurement": "RRD (%) for rilzabrutinib vs. placebo, UAS7 reduction of 10 points or more", "setting": "[4]", "result": 9.8, "unit": "%"}, {"measurement": "Responder, UAS7 reduction from baseline of 10 points or more", "setting": "[4]", "result": "18 (51.4) n (%)"}, {"measurement": "Non-responder, UAS7 reduction from baseline of 10 points or more", "setting": "[5]", "result": "22 (57.9) n (%)"}, {"measurement": "OR for rilzabrutinib vs. placebo, UAS7 reduction of 10 points or more", "setting": "[5]", "result": 0.959}, {"measurement": "RRD (%) for rilzabrutinib vs. placebo, UAS7 reduction of 10 points or more", "setting": "[5]", "result": "−1.0", "unit": "%"}, {"measurement": "Responder, UAS7 reduction from baseline of 10 points or more", "setting": "[5]", "result": "16 (42.1) n (%)"}, {"measurement": "UAS7 Change from baseline Mean (SD)", "setting": "[6]", "result": "−11.79 (10.56)"}, {"measurement": "UAS7 Change from baseline Median", "setting": "[6]", "result": "−9.00"}, {"measurement": "UAS7 Mean (SD)", "setting": "[6]", "result": "20.21 (10.42)"}, {"measurement": "UAS7 Median", "setting": "[6]", "result": 18.25}, {"measurement": "UAS7 Percent change from baseline Mean (SD)", "setting": "[6]", "result": "−35.97 (30.17) %"}, {"measurement": "UAS7 Percent change from baseline Median", "setting": "[6]", "result": "−37.30", "unit": "%"}, {"measurement": "UAS7 Change from baseline Mean (SD)", "setting": "[7]", "result": "−24.00 (NC)"}, {"measurement": "UAS7 Change from baseline Median", "setting": "[7]", "result": "−24.00"}, {"measurement": "UAS7 Mean (SD)", "setting": "[7]", "result": "17.00 (NC)"}, {"measurement": "UAS7 Median", "setting": "[7]", "result": 17.00}, {"measurement": "UAS7 Percent change from baseline Mean (SD)", "setting": "[7]", "result": "−58.54 (NC) %"}, {"measurement": "UAS7 Percent change from baseline Median", "setting": "[7]", "result": "−58.54", "unit": "%"}, {"measurement": "Non-responder, UAS7 reduction from baseline of 10 points or more", "setting": "[8]", "result": "22 (59.5) n (%)"}, {"measurement": "OR for rilzabrutinib vs. placebo, UAS7 reduction of 10 points or more", "setting": "[8]", "result": 0.981}, {"measurement": "RRD (%) for rilzabrutinib vs. placebo, UAS7 reduction of 10 points or more", "setting": "[8]", "result": "−0.5", "unit": "%"}, {"measurement": "Responder, UAS7 reduction from baseline of 10 points or more", "setting": "[8]", "result": "15 (40.5) n (%)"}, {"measurement": "Non-responder, UAS7 reduction from baseline of 10 points or more", "setting": "[9]", "result": "16 (39.0) n (%)"}, {"measurement": "OR for rilzabrutinib vs. placebo, UAS7 reduction of 10 points or more", "setting": "[9]", "result": 1.787}, {"measurement": "RRD (%) for rilzabrutinib vs. placebo, UAS7 reduction of 10 points or more", "setting": "[9]", "result": 14.2, "unit": "%"}, {"measurement": "Responder, UAS7 reduction from baseline of 10 points or more", "setting": "[9]", "result": "25 (61.0) n (%)"}, {"measurement": "UAS7 Change from baseline Mean (SD)", "setting": "[10]", "result": "−15.94 (12.03)"}, {"measurement": "UAS7 Change from baseline Median", "setting": "[10]", "result": "−15.00"}, {"measurement": "UAS7 Mean (SD)", "setting": "[10]", "result": "14.10 (11.23)"}, {"measurement": "UAS7 Median", "setting": "[10]", "result": 14.00}, {"measurement": "UAS7 Percent change from baseline Mean (SD)", "setting": "[10]", "result": "−52.07 (35.76) %"}, {"measurement": "UAS7 Percent change from baseline Median", "setting": "[10]", "result": "−47.83", "unit": "%"}, {"measurement": "UAS7 Change from baseline Mean (SD)", "setting": "[11]", "result": "−26.03 (14.05)"}, {"measurement": "UAS7 Change from baseline Median", "setting": "[11]", "result": "−26.58"}, {"measurement": "UAS7 Median", "setting": "[11]", "result": 3.00}, {"measurement": "UAS7 Percent change from baseline Mean (SD)", "setting": "[11]", "result": "−78.40 (28.08) %"}, {"measurement": "UAS7 Percent change from baseline Median", "setting": "[11]", "result": "−89.66", "unit": "%"}, {"measurement": "Non-responder, UAS7 reduction from baseline of 10 points or more", "setting": "[12]", "result": "15 (42.9) n (%)"}, {"measurement": "OR for rilzabrutinib vs. placebo, UAS7 reduction of 10 points or more", "setting": "[12]", "result": 1.770}, {"measurement": "RRD (%) for rilzabrutinib vs. placebo, UAS7 reduction of 10 points or more", "setting": "[12]", "result": 14.6, "unit": "%"}, {"measurement": "Responder, UAS7 reduction from baseline of 10 points or more", "setting": "[12]", "result": "20 (57.1) n (%)"}, {"measurement": "Non-responder, UAS7 reduction from baseline of 10 points or more", "setting": "[13]", "result": "18 (43.9) n (%)"}, {"measurement": "OR for rilzabrutinib vs. placebo, UAS7 reduction of 10 points or more", "setting": "[13]", "result": 1.899}, {"measurement": "RRD (%) for rilzabrutinib vs. placebo, UAS7 reduction of 10 points or more", "setting": "[13]", "result": 15.6, "unit": "%"}, {"measurement": "Responder, UAS7 reduction from baseline of 10 points or more", "setting": "[13]", "result": "23 (56.1) n (%)"}, {"measurement": "UAS7 Change from baseline Mean (SD)", "setting": "[14]", "result": "−14.03 (11.20)"}, {"measurement": "UAS7 Change from baseline Median", "setting": "[14]", "result": "−12.75"}, {"measurement": "UAS7 Mean (SD)", "setting": "[14]", "result": "15.55 (11.97)"}, {"measurement": "UAS7 Median", "setting": "[14]", "result": 14.88}, {"measurement": "UAS7 Percent change from baseline Mean (SD)", "setting": "[14]", "result": "−48.14 (36.14) %"}]}
